Laboratory results taken from patent EP0406760B1, “Plant growth regulating composition” (SUMITOMO CHEMICAL COMPANY, LIMITED, priority 1989, dated 1991).

Columns and labels:
morningglory = experiment: Inhibitory effect on antocyanin production in morningglory (soil or foliar treatment); format: in vivo, morningglory (var.: Scarlet Ohara); settings: soil and foliar spray treatments
Method: Seeds of morningglory (var.: Scarlet Ohara) was sowed in small pots (diameter, 8 cm) and cultivated in a greenhouse. At the time of development of cotyledons (9 days after sowing), short-day treatment was performed for 1 week to induce flowering. Five days prior to flowering (length of buds being about 1 to 2 cm), a designated amount of the compound (I) was applied to the soil or sprayed to the foliage of the plant. Cultivation was continued, and color of petals was visually observed in contrast to the non-treated plot and evaluated into five indices ranging from (-: no influence) to (++++: completely whitened).

antocyanin production = experiment: Inhibitory effect on antocyanin production in red cabbage seedlings in water culture; format: in vivo, red cabbase (var.: Ruby Ball); settings: 5 days at 25°C under 8000 luxes, in contrast to the non-treated plot
Method: Water culture (10 ml) containing the compound (I) was charged in a reaction vessel, and on adsorbed cotton laid down therein 15 seeds of red cabbase (var.: Ruby Ball) were sowed and cultivated for 5 days at 25°C under 8000 luxes. The shoot of the […] cabbage was cut and antocyanin was extracted with 1N hydrochloric acid (5 ml). The amount of antocyanin thus extracted was calculated by meauring an absorption at 535 nm on a spectrophotometer. The concentration of the compound (I) which inhibits 50 % the antocyanin production was calculated in contrast to the non-treated plot. Still, neither abnormality in the vegetative part nor suppression of growth of the test plant due to Compound (I) could be observed.

wheat = experiment: Inhibitory effect on lignin production in wheat and softening of wheat culm; format: in vivo, Wheat (var.: Nohrin No. 61); parameters: key: -: unchanged; +++: prominently softened; settings: wettable powder applied to the soil, hardness of culms determined manually versus untreated
From the text: Wheat seeds (var.: Nohrin No. 61) were sowed in small pots (6 seeds/pot) and cultivated in a greenhouse for about one month. When differentiation of culm was recognized, a designated amount of the compound in the form of a wettable powder according to Formulation Example 2 was applied to the soil, and cultivation was continued until blooming. Hardness of wheat culms in contrast to those of untreated was manually determined and evaluated into four indices ranging from (-: unchanged) to (+++: prominently softened).

[1] = system: chlorogenic acid production; experiment: Inhibitory effect on chlorogenic acid production in sunflower; format: in vivo, Sunflowers (var.: Russian Sunflower); settings: 1000 ppm wettable powder sprayed over the flowers; seed endosperm, HPLC; non-treated 3.4
Method: Sunflowers (var.: Russian Sunflower) were grown in a greenhouse for two weeks and transplanted in Wagner's pots (1/5000 are) and cultivated for 2 months outdoors. When 5 to 10 days elapsed after blooming, a designated amount of the compound in the form of a wettable powder according to Formulation Example 2 was sprayed over the flowers, from which seeds were harvested. Endosperm of the seeds were crushed and subjected to boiling-extraction with ethanol and filtration. The filtrate was diluted with 0.05 M aqueous H₃PO₄ and further filtered. The amount of chlorogenic acid was quantitatively analysed by HPLC (column: Nucleosil C18 (8 mm x 25 cm); eluent: methanol : 0.05 M H₃PO₄ (35 : 75)).

scopolamine production = experiment: Promoting effect on scopolamine production in hairy root culture; format: cell-based, Duboisia leichhardtii; settings: per culture (50 ml), 28 days after addition
Method: Hairy root of Duboisia leichhardtii are known to produce scopolamine once vegetative parts were infected with Agrobacterium rhizogenes (Plant Science, 59, 191 - 201 (1989)). One hairy root of Duboisia (var.: DL47-1) (wet content, 100 mg) was inoculated in a liquid HF-3 medium (50 ml) and subjected to rotation-culture with a speed of 85 rotations/min at 25°C in the dark place. After twenty-one days, 1000-fold dilution of a dimethylsulfoxide solution of Compound (I) was added to the culture medium to make its final concentration constant. Twenty-eight days thereafter, scopolamine in the hairy roots and the medium was respectively extracted and its amount was measured on a high performance liquid chromatography (HPLC).

Q: Which “phytotoxicity / adverse effect in the treated plants” value (morningglory) does the source give for NOC(Cc1ccccc1)C(=O)O (stereo not shown) [AOPP, 2-aminoxy-3-phenylpropionic acid, reference compound] here?
A: severe phytotoxicity (withering of leaves)

Q: And the “Concentration of 50 % inhibition of antocyanin production” value (antocyanin production)?
A: 4 ppm

Q: Which results are given for Cc1c(F)cccc1NC(=N)C(=O)O [Compound No. 1, N-(3-fluoro-2-methylphenyl)amidinoformic acid]?
A: Softening index (wheat; 4 mg/pot): +++; Content of chlorogenic acid [1]: 1.3 µg/mg fr.wt; Amount of scopolamine (mg) Medium (scopolamine production; final concentration 0.1 mg/l): 2.7 mg; Amount of scopolamine (mg) Root (scopolamine production; final concentration 0.1 mg/l): 2.1 mg; Amount of scopolamine (mg) Total (scopolamine production; final concentration 0.1 mg/l): 4.8 mg; Amount of scopolamine (mg) Medium (scopolamine production; final concentration 1.0 mg/l): 3.4 mg; Amount of scopolamine (mg) Root (scopolamine production; final concentration 1.0 mg/l): 2.4 mg; Amount of scopolamine (mg) Total (scopolamine production; final concentration 1.0 mg/l): 5.8 mg; Concentration of 50 % inhibition of antocyanin production (antocyanin production): 0.04 ppm

Q: Which Softening index (wheat; 2 mg/pot) does the source give for Cc1c(Cl)cccc1NC(=N)C(=O)O [Compound No. 3, N-(3-chloro-2-methylphenyl)amidinoformic acid] here?
A: +++

Q: What about the “Content of chlorogenic acid” value [1] of the same compound?
A: 1.0 µg/mg fr.wt

Q: What about the “Concentration of 50 % inhibition of antocyanin production” value (antocyanin production) of the same compound?
A: 0.02 ppm

Q: For Cc1ccc(Cl)cc1NC(=N)C(=O)O [Compound No. 4, N-(5-chloro-2-methylphenyl)amidinoformic acid], which “Concentration of 50 % inhibition of antocyanin production” value (antocyanin production) is on record?
A: 0.1 ppm

Q: With Cc1cc(F)ccc1NC(=N)C(=O)O [Compound No. 5, N-(4-fluoro-2-methylphenyl)amidinoformic acid] as the compound, how does the “Concentration of 50 % inhibition of antocyanin production” value (antocyanin production) read?
A: 0.1 ppm

Q: CCOC(=O)C(=N)Nc1cccc(F)c1C [Compound No. 26, ethyl N-(3-fluoro-2-methylphenyl)amidinoformate] was tested. Which “Concentration of 50 % inhibition of antocyanin production” value (antocyanin production) did it give?
A: 0.06 ppm

Q: Which “Concentration of 50 % inhibition of antocyanin production” value (antocyanin production) does the source give for Cc1c(Cl)cccc1NC(=N)C(=O)[O-].[Na+] [Compound No. 30, sodium salt of N-(3-chloro-2-methylphenyl)amidinoformic acid] here?
A: 0.05 ppm

Q: Which “Concentration of 50 % inhibition of antocyanin production” value (antocyanin production) does the source give for Cc1c(Cl)cccc1NC(=N)C(=O)[O-].[K+] [Compound No. 31, potassium salt of N-(3-chloro-2-methylphenyl)amidinoformic acid] here?
A: 0.05 ppm
